Patent US20100249061A1, “OLIGOSACCHARIDES, PREPARATION METHOD AND USE THEREOF, AND PHARMACEUTICAL COMPOSITIONS CONTAINING SAME” (Aventis Pharma S.A., priority 2004, published 2010)
Like-named read-outs stand apart in the source and are kept apart here. Each block holds one substance with its values, some of them ahead of it.

Legend:
heparanase = biological target: T1, heparanase (Homo sapiens, UniProt Q9Y251); assay: Heparanase inhibition in an enzymatic system (degradation of fondaparinux, residual anti-factor Xa activity); format: biochemical
T1 sequence (Q9Y251 36-543): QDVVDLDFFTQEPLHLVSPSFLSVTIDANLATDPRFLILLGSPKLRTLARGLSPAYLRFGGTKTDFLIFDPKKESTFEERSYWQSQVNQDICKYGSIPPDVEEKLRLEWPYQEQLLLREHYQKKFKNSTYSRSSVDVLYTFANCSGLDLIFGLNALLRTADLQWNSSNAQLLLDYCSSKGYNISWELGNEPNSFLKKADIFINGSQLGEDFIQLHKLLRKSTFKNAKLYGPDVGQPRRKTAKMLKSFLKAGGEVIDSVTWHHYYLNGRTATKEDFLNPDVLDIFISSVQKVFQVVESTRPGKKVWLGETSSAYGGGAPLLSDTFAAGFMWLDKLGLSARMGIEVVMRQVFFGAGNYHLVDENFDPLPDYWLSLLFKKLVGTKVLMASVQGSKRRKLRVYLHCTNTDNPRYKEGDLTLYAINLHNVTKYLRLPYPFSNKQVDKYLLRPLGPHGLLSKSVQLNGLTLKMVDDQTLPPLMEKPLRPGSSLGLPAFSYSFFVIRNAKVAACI
Method: The concentration of fondaparinux is determined by virtue of its anti-factor Xa activity.
The heparanase is produced by Sanofi-Synthélabo (Labège, France). The reagents for assaying factor Xa are sold by Chromogénix (Montpellier, France).
Increasing concentrations of a compound according to the invention, heparanase inhibitor ([…]), are mixed with a fixed concentration of heparanase (for each batch, preliminary experiments make it possible to determine the enzymatic activity sufficient for degradation of 0.45 μg/ml of fondaparinux added). After 5 minutes at 37° C., the mixture is brought into contact with the fondaparinux and left at 37° C. for 1 hour. The reaction is stopped by heating at 95° C. for 5 minutes. The residual fondaparinux concentration is finally measured by adding factor Xa and its specific chromogenic substrate (Ref. S2222).
50 μl of sodium acetate buffer (0.2 M, pH 4.2) are mixed with 50 μl of fondaparinux (0.45 μg/ml) and 59 μl of a heparanase solution. The mixture is incubated for 1 hour at 37° C. and then for 5 minutes at 95° C. The pH thus goes from 4.2 to 7. 100 μl of the reaction mixture are then mixed with 50 μl of 50 mM Tris buffer containing 175 mM NaCl and 75 mM EDTA, […]. The anti-factor Xa activity of the fondaparinux is measured in the following way:
100 μl of the solution obtained in step a) are mixed with 100 μl of AT (0.5 μg/ml). The mixture is kept at 37° C. for 2 minutes and 100 μl of factor Xa (7 nkat/ml) are then added. The mixture is kept at 37° C. for 2 minutes and 100 μl of chromogenic substrate (Ref.: S2222) (1 mM) are then added. The mixture is kept at 37° C. for 2 minutes and then 100 μl of acetic acid (50%) are added. The optical density is read at 405 nm. A percentage inhibition is determined relative to the control without inhibitor. A percentage inhibition curve makes it possible to calculate an IC50.

ATIII = ATIII (Homo sapiens, UniProt P01008); assay: Affinity for ATIII; format: binding
Chain of ATIII (P01008 33-464, species assumed): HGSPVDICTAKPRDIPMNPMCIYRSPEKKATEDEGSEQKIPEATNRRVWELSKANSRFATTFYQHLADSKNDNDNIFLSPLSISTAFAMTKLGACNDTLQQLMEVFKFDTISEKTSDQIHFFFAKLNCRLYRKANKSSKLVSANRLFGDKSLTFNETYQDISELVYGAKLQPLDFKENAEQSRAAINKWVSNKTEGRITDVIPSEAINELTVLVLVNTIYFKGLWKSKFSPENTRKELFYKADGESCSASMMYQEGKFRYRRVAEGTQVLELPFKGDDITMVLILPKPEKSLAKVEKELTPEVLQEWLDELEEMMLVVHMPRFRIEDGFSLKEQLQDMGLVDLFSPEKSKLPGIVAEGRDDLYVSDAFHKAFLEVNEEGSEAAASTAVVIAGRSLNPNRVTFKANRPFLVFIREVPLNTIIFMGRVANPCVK

[1] = Petitou et al., J. Biol. Chem. (1988); sodium salt; cited from earlier work
[2] = Stability in alkaline medium / physicochemical properties; conditions: loses 3-O-sulphated terminal glucosamine, converted to pentasaccharide ΔIs-IIaid-GlcA as soon as pH exceeds 8
Method: The depolymerization of the heparin takes place under the following conditions: 3 g of heparin from porcine mucous are dissolved in 30 ml of a solution of 0.2M NaCl, 0.02% BSA, 5 mM Na2HPO4, adjusted to pH 7. The depolymerization temperature is 16° C. 2 IU of heparinase 1 are initially introduced. After 7 days, an additional unit of heparinase 1 is added. After 15 days, the heparin depolymerization is considered to be finished. The reaction is monitored either by analytical […] on a TSK Super SW 2000 column (FIG. 1), or on a CTA-SAX column (FIG. 2a). The enzyme reaction may be considered to be sufficiently advanced when the proportion of oligosaccharides greater than octasaccharide in size is limited and when the two main sulphated hexasaccharides ΔIs-Isid-Isid and ΔIs-Isid-IIsglu in the mixture have been depolymerized to tetrasaccharides. When the enzyme reaction has finished, the solution is filtered through a 0.2 μm membrane and then injected, in 2 stages, onto a GC column filled with Biogel P10 (Bio Rad), in which a 0.2 N NaCl mobile phase circulates (FIG. 3). […] It is therefore very important to slightly acidify (pH between 5 and 6) the entire hexasaccharide fraction.

[3] = biological target: T2, heparanase isolated from human peripheral blood leukocytes (PMN supernatant) (Homo sapiens, UniProt Q9Y251); assay: Heparanase degradation of 35-S-labelled heparan sulphate proteoglycan, gel permeation chromatography and scintillation counting; format: biochemical
T2 construct: The supernatants containing the heparanase are then collected; from tissue; host or cells: human peripheral blood leukocytes (buffy coats) enriched in PMNs; cell supernatant
T2 sequence (Q9Y251 36-543): T1 sequence (Q9Y251 36-543)
Excerpt: Radiolabelled heparin/heparan sulphate (HS) is degraded with heparanases, producing low molecular weight HS fragments which can be measured by gel permeation chromatography (FPLC) and counting of the collected fractions by liquid scintillation.
A uterine fibroblast cell line was used to prepare heparan sulphate (proteoglycan) labelled with 35-S by metabolic labelling. It has been shown that this cell line produces relatively large amounts of various heparan sulphate proteoglycans (HS-PGs), such as syndecans and glypican (Drzeniek et al., Blood 93:2884-2897, 1999).
The labelling is carried out by incubating the cells, with a cell density of approximately 1×10^6 cells/ml, in the presence of 35-S-sulphate at 33 μCi/ml in the tissue culture medium for 24 hours. The supernatants are then collected and a protease inhibitor, PMSF (phenylmethylsulfonyl fluoride) (1 mmol/l), is added. […]
200 μl of 35-S-labelled heparan sulphate (proteoglycans) adjusted to approximately 2200 cpm/ml (cpm=counts per minute) are incubated at 37° C. for 18 hours with 1 μl of PMN supernatant containing the heparanase. 200 μl of the mixture obtained above are sampled on a TSK 4000 gel permeation chromatography column (FPLC), and the fractions are collected and analyzed by liquid scintillation counting.
The degradation was measured according to the following formula: […]
For example, the percentage degradation is calculated as follows: the sum of the counts (cpm) in fractions 20-33 of the sample after treatment with the heparanase, minus the background noise count (cpm) (fractions 20-33) of the control sample, is divided by the total counts (fractions 12-33) applied to the column. […] A correction for the sulphatase activity is not necessary since no sulphatase activity could be detected.
The following heparanase inhibitors: unfractionated heparin (UF-H) and Hexa Iso ATIII were assayed via the protocol described above at three different concentrations. […] The data are expressed as percentage inhibition of the heparanase activity. […]

Substance: ΔIs-Is-Is-Is-IIs [(Ij)]
- % inhibition (heparanase; Concentration 3.00E−5 M): 48.4%

- affinity for ATIII (ATIII): no affinity for ATIII
- % inhibition (heparanase; Concentration 3.00E−5 M): 48.5%
- stability in alkaline medium [2]: extremely fragile in alkaline medium
- heparanase-inhibiting activity (conclusion in words) [3]: strong heparanase-inhibiting activity
- heparanase-inhibiting activity (conclusion in words) ([3]; listed as hexasaccharide Iso ATIII): very good heparanase inhibitor
- dose dependence of heparanase inhibition ([3]; three concentrations, FIG. 2 / FIG. 7): dose-dependant inhibition
Substance: ΔIs-IIaid-IIsglu [Hexa Iso ATIII]
- anti-thrombotic activity (Anti-thrombotic activity): devoid of anti-thrombotic activity
- anti-thrombotic activity [1]: no anti-thrombotic activity

Substance: ΔIs-Is-Ia-IIs [(Id)]
- % inhibition (heparanase; Concentration 3.00E−5 M): 53.9%

Substance: ΔIs-Is-Is-IIa-IIs [(If)]
- % inhibition (heparanase; Concentration 3.00E−6 M): 58.4%

Substance: ΔIs-Is-IIa-IIs [(Ic)]
- % inhibition (heparanase; Concentration 3.00E−6 M): 59.2%

Substance: ΔIs-Is-Is-IIs [(Ie)]
- % inhibition (heparanase; Concentration 3.00E−5 M): 59.1%

Substance: ΔIs-Is-Is-IIa-IIs [(Ig)]
- % inhibition (heparanase; Concentration 1.00E−4 M): 55.8%

Substance: ΔIs-Ia-IIs [(Im)]
- % inhibition (heparanase; Concentration 3.00E−5 M): 54.1%

Substance: ΔIs-Is-Is-Ia-IIs [(Ih)]
- % inhibition (heparanase; Concentration 3.00E−5 M): 55.5%

Substance: ΔIs-Is-IIa-IIs [(Ib)]
- % inhibition (heparanase; Concentration 1.00E−5 M): 59.9%

Substance: ΔIs-IIa-IIs [(Ia)]
- % inhibition (heparanase; Concentration 1.00E−4 M): 53.8%
